The text below walks through data of US9034368B2 (PUREPHARM INC., priority 2002, dated 2015).

In one series the test system is excessive sweating. The conditions noted are these: patient 3: topical application (1% pads and 1% spray).
For series [1] the following is noted: Hay 1982; roll-on solution, distilled water; concentrations above 2%; cited from earlier work.
The test system of series [2] is hyperhidrosis and gustatory sweating. Conditions: cited from earlier work.

As for `C[N+]1(C)CCC(OC(=O)C(O)(c2ccccc2)C2CCCC2)C1` (stereo not shown) [glycopyrrolate], the side effects result in the series with excessive sweating is “not experienced any side effects”. In addition, the crystallisation from solution entry in series [1] is listed as “Glycopyrrolate crystalized out”. Moreover, the “efficacy of topical concentration” value in series [2] (0.1% concentration, Hays 1978) is listed as “ineffective”. Further, the “efficacy of solution versus cream” value in series [2] (Hay 1982, 2 & 4% HEB cream base) was “Solution worked better than”. Further, the relief of sweating entry in series [2] (May 1989, 0.5 & 2.0% roll-on, 2.0% cream, almost all patients) is recorded as “total or partial relief. Placebo”. In series [2] (Seukeran 1998, 0.50% aqueous solution), the efficacy result is listed as “Worked well”. For the same molecule, the “concentration after which mild side effects begin to present themselves” value in series [2] (topical, Hays 1978) is reported as greater than 4%.
